Results published in patent US11926626B2, “Heterocyclic GLP-1 agonists” (Gasherbrum Bio, Inc., priority 2020, dated 2024).

These compounds were tested against GLP-1 Receptor (Homo sapiens, UniProt P43220) (assay: GLP-1R agonist cAMP stimulation assay (HEK293/GLP1R/CRE-Luc cells, HTRF cAMP)). Conditions: 30 min, 37° C.
Sequence of GLP-1 Receptor (P43220 24-463): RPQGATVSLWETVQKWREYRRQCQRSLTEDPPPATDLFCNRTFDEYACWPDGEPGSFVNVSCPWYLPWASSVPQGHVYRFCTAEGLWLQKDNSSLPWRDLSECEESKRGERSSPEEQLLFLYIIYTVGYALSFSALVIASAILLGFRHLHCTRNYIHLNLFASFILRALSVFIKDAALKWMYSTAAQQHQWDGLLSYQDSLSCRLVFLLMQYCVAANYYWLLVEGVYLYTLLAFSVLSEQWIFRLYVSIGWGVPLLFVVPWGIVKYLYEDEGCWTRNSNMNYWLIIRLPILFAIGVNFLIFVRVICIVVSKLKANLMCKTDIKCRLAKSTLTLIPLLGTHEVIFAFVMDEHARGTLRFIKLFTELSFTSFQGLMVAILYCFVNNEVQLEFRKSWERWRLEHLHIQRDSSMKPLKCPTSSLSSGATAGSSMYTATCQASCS
Format: cell-based
Protocol: Activation of GLP-1 receptor is known to stimulate cyclic AMP (cAMP) production in cells which indicates primary coupling to the Gαs subunit of the G protein heterotrimeric complex.
To optimize functional activity directed toward Gαs coupling, a HEK293/CRE-Luc cell line developed by HDB stably expressing the GLP-1 Receptor was used. […] 1×10^5 cells/mL HEK293/GLP1R/CRE-LUC(HD Biosciences) cell suspensions prepared with assay buffer[DPBS containing 0.5 mM IBMX (Sigma, Cat #I5879) and 0.1% BSA (GENVIEW, Cat #FA016-100g)], 10 uL cell suspensions were added to each well of previous generated assay plate which already contains 50 nl compound at 200×concentration using ThermoFisher Multidrop Combi (1000 cells/well). Seal the plate and incubate at 37° C. with 5% CO2 for 30 min.
After incubation the cAMP assay signal was generated using cAMP dynamic 2 Kit (Cisbio). 5 μL cAMP-d2 working solution was added to each well, followed with 5 μL Anti-cAMP antibody-cryptate working solution added to each well using ThermoFisher Multidrop Combi. Incubate at room temperature for 1 hour protected from light.
With `O=C(O)c1ccc2nc(CN3CCC(c4cccc5nc(Cc6ccc(Cl)cc6F)oc45)CC3)n(C[C@@H]3CCO3)c2n1` [Compound 143a, (S)-2-((4-(2-(4-chloro-2-fluorobenzyl)benzo[d]oxazol-7-yl)piperidin-1-yl)methyl)-3-(oxetan-2-ylmethyl)-3H-imidazo[4,5-b]pyridine-5-carboxylic acid] the “GLP1R cAMP Stimulation DR: pEC50” value was 9.3. For `CC(=O)Nc1ccc2nc(CN3CCC(Oc4cccc(Cc5ccc(Cl)cc5F)n4)CC3)n(C[C@@H]3CCO3)c2c1` [Compound 134a, N-(2-{[4-({6-[(4-chloro-2-fluorophenyl)methyl]pyridin-2-yl}oxy)piperidin-1-yl]methyl}-1-{[(2S)-oxetan-2-yl]methyl}-1H-1,3-benzodiazol-6-yl)acetamide], the “GLP1R cAMP Stimulation DR: pEC50” value was 7.2.

Same assay, conditions: HEK293/CRE-Luc cells stably expressing GLP-1 Receptor; 30 min, 37° C.
`O=C(O)c1ccc2nc(C[C@H]3CC[C@H](Oc4nc(Cc5ccc(Cl)cc5)ncc4F)CC3)n(C[C@@H]3CCO3)c2n1` [Compound 188a, 3-{[(2S)-oxetan-2-yl]methyl}-2-{[trans-4-({2-[(4-chlorophenyl)methyl]-5-fluoropyrimidin-4-yl}oxy)cyclohexyl]methyl}-3H-imidazo[4,5-b]pyridine-5-carboxylic acid] was tested, and the “GLP1R cAMP Stimulation DR: pEC50” value was 10.3. In the case of `O=C(O)c1ccc2nc(CN3CCC(Oc4ccn(Cc5ccc(Cl)cc5F)n4)CC3)n(C[C@@H]3CCO3)c2c1` [Compound 116a, 2-{[4-({1-[(4-chloro-2-fluorophenyl)methyl]-1H-pyrazol-3-yl}oxy)piperidin-1-yl]methyl}-1-{[(2S)-oxetan-2-yl]methyl}-1H-1,3-benzodiazole-6-carboxylic acid], the “GLP1R cAMP Stimulation DR: pEC50” value is reported as 8.6. In the case of `O=C(O)c1ccc2nc(CN3CCC(Oc4cccc(Cn5ccc(Cl)cc5=O)n4)CC3)n(C[C@@H]3CCO3)c2n1` [Compound 149a, 2-{[4-({6-[(4-chloro-2-oxo-1,2-dihydropyridin-1-yl)methyl]pyridin-2-yl}oxy)piperidin-1-yl]methyl}-3-{[(2S)-oxetan-2-yl]methyl}-3H-imidazo[4,5-b]pyridine-5-carboxylic acid], the “GLP1R cAMP Stimulation DR: pEC50” value is reported as 8.3. `O=C(O)c1ccc2nc(CN3CCC(Oc4nc(Cc5ccc(Cl)cc5)ncc4F)CC3)n(C[C@H]3CCOC3)c2n1` [Compound 197a, (R)-2-((4-((2-(4-chlorobenzyl)-5-fluoropyrimidin-4-yl)oxy)piperidin-1-yl)methyl)-3-((tetrahydrofuran-3-yl)methyl)-3H-imidazo[4,5-b]pyridine-5-carboxylic acid] was tested, and the “GLP1R cAMP Stimulation DR: pEC50” value was 8.6. In the case of `O=C(O)c1ccc2nc(CN3CCC(Oc4ccc(F)c(Cc5ccc(Cl)cc5F)n4)CC3)n(C[C@@H]3CCO3)c2n1` [Compound 150a, (S)-2-((4-((6-(4-chloro-2-fluorobenzyl)-5-fluoropyridin-2-yl)oxy)piperidin-1-yl)methyl)-3-(oxetan-2-ylmethyl)-3H-imidazo[4,5-b]pyridine-5-carboxylic acid], the “GLP1R cAMP Stimulation DR: pEC50” value is reported as 7.2. For `O=C(O)c1cnc2nc(CN3CCC(Oc4ccnc(Cc5ccc(Cl)cc5F)n4)CC3)n(C[C@@H]3CCO3)c2c1` [Compound 161a, 2-{[4-({2-[(4-chloro-2-fluorophenyl)methyl]pyrimidin-4-yl}oxy)piperidin-1-yl]methyl}-1-{[(2S)-oxetan-2-yl]methyl}-1H-imidazo[4,5-b]pyridine-6-carboxylic acid], the “GLP1R cAMP Stimulation DR: pEC50” value was 9.7. In the case of `O=C(O)c1ccc2nc(CN3CCC(Oc4ccnc(Cc5ccc(Cl)cc5)c4)CC3)n(C[C@@H]3CCO3)c2n1` [Compound 159a, 2-{[4-({2-[(4-chlorophenyl)methyl]pyridin-4-yl}oxy)piperidin-1-yl]methyl}-3-{[(2S)-oxetan-2-yl]methyl}-3H-imidazo[4,5-b]pyridine-5-carboxylic acid], the “GLP1R cAMP Stimulation DR: pEC50” value is reported as 8.6. With `O=C(O)c1ccc2nc(CN3CCC(Cc4cccc(Oc5ccc(Cl)cc5F)n4)CC3)n(C[C@@H]3CCO3)c2n1` [Compound 121a, 2-[(4-{[6-(4-chloro-2-fluorophenoxy)pyridin-2-yl]methyl}piperidin-1-yl)methyl]-3-{[(2S)-oxetan-2-yl]methyl}-3H-imidazo[4,5-b]pyridine-5-carboxylic acid] the “GLP1R cAMP Stimulation DR: pEC50” value was 8.2. In the case of `O=C(O)c1ccc2nc(CN3CCC(Oc4nn(Cc5ccc(Cl)cc5F)cc4Cl)CC3)n(C[C@@H]3CCO3)c2n1` [Compound 183a, 2-{[4-({4-chloro-1-[(4-chloro-2-fluorophenyl)methyl]-1H-pyrazol-3-yl}oxy)piperidin-1-yl]methyl}-3-{[(2S)-oxetan-2-yl]methyl}-3H-imidazo[4,5-b]pyridine-5-carboxylic acid], the “GLP1R cAMP Stimulation DR: pEC50” value is reported as 9.1. `O=C(O)c1ccc2nc(CN3CCC(Oc4cccc(Cc5ccc(C(F)(F)F)cc5)n4)CC3)n(C[C@@H]3CCO3)c2n1` [Compound 145a, 3-{[(2S)-oxetan-2-yl]methyl}-2-({4-[(6-{[4-(trifluoromethyl)phenyl]methyl}pyridin-2-yl)oxy]piperidin-1-yl}methyl)-3H-imidazo[4,5-b]pyridine-5-carboxylic acid] was tested, and the “GLP1R cAMP Stimulation DR: pEC50” value was 8.5. `O=C(O)c1ccc2nc(CN3CC=C(c4cnc5ccc(Cc6ccc(Cl)cc6F)nn45)CC3)n(C[C@@H]3CCO3)c2n1` [Compound 192a, 2-[(4-{6-[(4-chloro-2-fluorophenyl)methyl]imidazo[1,2-b]pyridazin-3-yl}-1,2,3,6-tetrahydropyridin-1-yl)methyl]-3-{[(2S)-oxetan-2-yl]methyl}-3H-imidazo[4,5-b]pyridine-5-carboxylic acid] was tested, and the “GLP1R cAMP Stimulation DR: pEC50” value was 6.9. In the case of `O=C(O)c1ccc2nc(C[C@H]3CC[C@H](Oc4cccc(Cc5ccc(Cl)cc5F)n4)CC3)n(C[C@@H]3CCO3)c2n1` [Compound 174b, 3-{[(2S)-oxetan-2-yl]methyl}-2-{[trans-4-({6-[(4-chloro-2-fluorophenyl)methyl]pyridin-2-yl}oxy)cyclohexyl]methyl}-3H-imidazo[4,5-b]pyridine-5-carboxylic acid], the “GLP1R cAMP Stimulation DR: pEC50” value is reported as 9.9. `O=C(O)c1ccc2nc(C[C@H]3CC[C@H](Oc4ccnc(Cc5ccc(Cl)cc5F)n4)CC3)n(C[C@@H]3CCO3)c2n1` [Compound 175b, 3-{[(2S)-oxetan-2-yl]methyl}-2-{[trans-4-({2-[(4-chloro-2-fluorophenyl)methyl]pyrimidin-4-yl}oxy)cyclohexyl]methyl}-3H-imidazo[4,5-b]pyridine-5-carboxylic acid] was tested, and the “GLP1R cAMP Stimulation DR: pEC50” value was 10.2. In the case of `O=c1[nH]c(-c2ccc3nc(CN4CCC(Oc5ccnc(Cc6ccc(Cl)cc6)n5)CC4)n(C[C@@H]4CCO4)c3n2)no1` [Compound 198a, (S)-3-(2-((4-((2-(4-chlorobenzyl)pyrimidin-4-yl)oxy)piperidin-1-yl)methyl)-3-(oxetan-2-ylmethyl)-3H-imidazo[4,5-b]pyridin-5-yl)-1,2,4-oxadiazol-5(4H)-one], the “GLP1R cAMP Stimulation DR: pEC50” value is reported as 9.2. For `O=C(O)c1ccc2nc(CN3CC4CC(Oc5ccnc(Cc6ccc(Cl)cc6)n5)CC4C3)n(C[C@@H]3CCO3)c2n1` (stereo partly drawn) [Compound 201a, 2-{[5-({2-[(4-chlorophenyl)methyl]pyrimidin-4-yl}oxy)-octahydrocyclopenta[c]pyrrol-2-yl]methyl}-3-{[(2S)-oxetan-2-yl]methyl}-3H-imidazo[4,5-b]pyridine-5-carboxylic acid], the “GLP1R cAMP Stimulation DR: pEC50” value was 6.4. For `O=C(O)c1ccc2nc(Cc3ccc(Oc4ccnc(Cc5ccc(Cl)cc5)n4)cc3)n(C[C@@H]3CCO3)c2c1` [Compound 187a, 2-{[4-({2-[(4-chlorophenyl)methyl]pyrimidin-4-yl}oxy)phenyl]methyl}-1-{[(2S)-oxetan-2-yl]methyl}-1H-1,3-benzodiazole-6-carboxylic acid], the “GLP1R cAMP Stimulation DR: pEC50” value was 8.9. For `O=C(O)c1ccc2nc(CN3CCC(Oc4nc(Cc5ccc(Cl)cc5F)ccc4F)CC3)n(C[C@@H]3CCO3)c2n1` [Compound 111a, 2-{[4-({6-[(4-chloro-2-fluorophenyl)methyl]-3-fluoropyridin-2-yl}oxy)piperidin-1-yl]methyl}-3-{[(2S)-oxetan-2-yl]methyl}-3H-imidazo[4,5-b]pyridine-5-carboxylic acid], the “GLP1R cAMP Stimulation DR: pEC50” value was 9.5. With `O=C(O)c1ccc2nc(CN3CCC(Oc4cc(C(F)(F)F)cc(Cc5ccc(Cl)cc5)n4)CC3)n(C[C@@H]3CCO3)c2n1` [Compound 156a, 2-{[4-({6-[(4-chlorophenyl)methyl]-4-(trifluoromethyl)pyridin-2-yl}oxy)piperidin-1-yl]methyl}-3-{[(2S)-oxetan-2-yl]methyl}-3H-imidazo[4,5-b]pyridine-5-carboxylic acid] the “GLP1R cAMP Stimulation DR: pEC50” value was 7.4. In the case of `COC(C)Cn1c(CN2CCC(Oc3ccnc(Cc4ccc(Cl)cc4)n3)CC2)nc2ccc(C(=O)O)nc21` (stereo not shown) [Compound 195, 2-((4-((2-(4-chlorobenzyl)pyrimidin-4-yl)oxy)piperidin-1-yl)methyl)-3-(2-methoxypropyl)-3H-imidazo[4,5-b]pyridine-5-carboxylic acid], the “GLP1R cAMP Stimulation DR: pEC50” value is reported as 9.2.

Same assay, conditions: HEK293/CRE-Luc cells stably expressing GLP-1 Receptor; 30 min, 37° C.; read-out: GLP1R cAMP Stimulation DR: EC50
`Cc1ccc(OC2CCN(Cc3nc4ccc(C(=O)O)nc4n3CC3CCO3)CC2)nc1Cc1ccc(Cl)cc1F` (stereo in doubt) [Compound 169a, 2-{[4-({6-[(4-chloro-2-fluorophenyl)methyl]-5-methylpyridin-2-yl}oxy)piperidin-1-yl]methyl}-3-{[(2S)-oxetan-2-yl]methyl}-3H-imidazo[4,5-b]pyridine-5-carboxylic acid] was tested, and the EC50 was 80 nM.
